Results reported in patent publication US20040132700A1, “Use of fluticasone propionate in the treatment of diseases ameliorated by enhancement of epithelial madrix adhesion such as asthma cystic fibrosis and influenza” (priority 2001, published 2004).

Legend:
Type in all cases: cell-based
[1] = test system: human primary bronchial epithelial cells; experiment: human sputum elastase (HSE) induced hole formation and loss of TER in primary bronchial epithelial cells
Procedure: (§1) 16HBe14o- cells were grown on transwell clear membranes until they formed an electrically tight monolayer. In the absence of serum, the cells were treated for 24 hours with FP or vehicle. 5 μg/ml human sputum elastase (HSE) or 5 μg/ml Pseudomonas Aeruginosa elastase (PAE) was then added to the basolateral surface of the cells. The transepithelial resistance (TER) and the morphology of the monolayers were monitored over the next 24 hours.
(§2) When HSE was added to the basal surface of the both the 16HBE14o- and primary bronchial epithelial cells it caused a lowering of TER and formation of holes in the cell monolayers. […] When the cells were treated with PAE, the monolayer detached from the underlying membrane as a complete sheet. It took 4 hours for all of the control cultures treated with PAE to become detached whereas it took 8 hours for all of the FP pretreated cultures to become detached.

16HBe14o- cells [2] = experiment: Pseudomonas aeruginosa elastase (PAE) induced detachment and loss of TER of 16HBe14o- monolayers
Procedure: as §1, §2

16HBE epithelial cells = experiment: mechanical wounding of confluent 16HBE epithelial cultures, wound area; conditions: 16HBE cultures, various steroid concentrations for 24 h or 48 h before wounding (FIG. 7), versus control cultures
Procedure: To study the effect of FP on protection from mechanical damage, multiple concentric wounds were generated in multiwell plates, thus achieving a large total wound length for analysis. 10^4 cells in 0.2 ml of growth medium containing 5% steroid-free FCS were added to wells in 96 well plates and cultured until confluent with regular changes of growth medium. Cultures were incubated for a further 24 h or 48 h before wounding. After wounding, cultures were rinsed in PBS, fixed at room temperature in methanol/acetone (50/50), air dried and then stained with 0.1% crystal violet. Wound areas were determined using a Leica Q550IW image analysis system. […] The steroid effects were obvious at 24 h, but even more marked at 48 h. At the latter time point, control wound size had increased, whilst the highest dose of either steroid had reduced wound size, compared to wounds after 24 h exposure. […] In the control cultures, tearing of the epithelium from the dish surface beyond the area of direct contact with the needle occurs producing a wound width that is much greater than the needle width. In contrast, in steroid treated cultures, wounds become progressively smaller with increasing steroid concentration until the damage area is limited to the epithelium that has had direct contact with the needle.

16HBe14o- cells [3] = experiment: human sputum elastase (HSE) induced hole formation and loss of TER in 16HBe14o- monolayers
Procedure: as §1, §2

## CCC(=O)O[C@]1(C(=O)SCF)[C@H](C)C[C@H]2[C@@H]3C[C@H](F)C4=CC(=O)C=C[C@]4(C)[C@@]3(F)[C@@H](O)C[C@@]21C [FP, S-fluoromethyl 6α, 9β-difluoro-11β-hydroxy-16α-methyl-17α-propionyloxy-3-oxoandrosta-1,4-diene-17β-carbothiate]
[1]; primary bronchial epithelial cells (FIG. 3)
  loss of TER induced by human sputum elastase: protective effect
[1]; primary bronchial epithelial cells, FP pretreatment, HSE added to basal surface
  rate of hole formation in cell monolayer: reduction in the rate of hole formation
16HBe14o- cells [2]; 16HBe14o- cells (FIG. 5)
  loss of TER induced by pseudomonas elastase: protective effect
16HBe14o- cells [2]; 16HBe14o- cells, 24 h FP pretreatment, 5 μg/ml PAE basolateral, control cultures 4 hours
  time for all cultures to become detached from the underlying membrane: 8 h
16HBE epithelial cells
  wound size (wound area): dose-related decrease in wound size
16HBe14o- cells [3]; 16HBE14o- cells, 24 h FP pretreatment, 5 μg/ml HSE basolateral, monitored over 24 hours
  rate of hole formation in cell monolayer: reduction in the rate of hole formation
16HBe14o- cells [3]; 16HBe14o- cells, after 24 hour incubation with HSE (FIG. 2)
  loss of TER induced by HSE: protective effect
